Measured values published in publication PMC11522901, “Translation of Deoxyribonucleic Acid into Synthetic Alpha Helical Peptides for Darwinian Evolution” (JACS Au, 2024).

Tested on: GST-MDM2
Assay: Binder/nonbinder affinity selection on GST-MDM2 beads with plate reader readout
Assay type: binding
Settings: 1:1 mixture, 500 nM each, 2 h at 4 °C with GST-MDM2 on GSH beads, four washes, elution 95 °C 5 min
Text: We next investigated whether a templated ligation could yield peptides in an α-helical conformation. Since CD-based analyses would be difficult to interpret given the PNA, we opted to assess the helical nature of the peptide using binding to a target that requires this conformation. To this end, we used MDM2, an important regulator of the p53 tumor suppressor, which binds to an α-helix of p53[47] and has been a testing ground for stapling technologies[48]−[52] and screening technologies.[53]−[56] Additionally, several X-ray diffraction structures of the MDM2-peptide complex have been reported, supporting the importance of the helicity of the peptide.[51],[57],[58] […] Affinity selection of this mixture against GST-MDM2 immobilized on GSH beads was monitored by fluorescence quantification of the supernatant solution. […]
Ten μL of MagneGST glutathione particles (Promega #V8611) were blocked with 1 mg/mL BSA in PBS-CHAPS (10 mM phosphate buffer, 2.7 mM KCl, and 137 mM NaCl, pH 7.4, with 0.05% CHAPS) three times at room temperature for 5 min. […] The initial library, post-incubation library, washes, and elution were analyzed by a plate reader (SpectraMax i3x, in black 96-well microtiter plates (Thermo Scientific #267342)). […]

“PNA- Gly Ser Nle Cba Gln Ala Trp Tyr Glu Nle Phe Thr Leu Gly -PNA (head to tail) [binder]” was tested, and the “recovery in heat elution after affinity selection (fluorescence)” value was “strong recovery”.
